In experiment [1] the test system is cell death induced by heat shock, oxidative and DNA damage stresses. The following applies: 1 mM SA 24 hr before stress; WT, not in npr1-2. How it is done: (§1) Chemical treatment, pathogen infection and cell death assays. For soil-grown Arabidopsis plants, SA treatment was carried out with spray at indicated concentrations. For seedlings grown vertically on solid 1/2 MS medium for 10-12 days, SA […] treatment (1 mM), with or without the proteasome inhibitor MG132 (50 μM), and protein synthesis […] inhibitor cycloheximide (100 μM) was done by submerging them in solutions for indicated periods. Unless otherwise stated, in N. benthamiana, SA treatment was done by infiltrating leaves 24 hr after agroinfiltration. SA pre-treatment of mature Arabidopsis was done by spray 24 hr before bacterial infection or cell death induction. For bacterial infections, Pseudomonas syringae pv. maculicola ES4326 carrying AvrRpt2 or AvrRpm1 effectors, and Pf Pf0-1 carrying functional AvrRps4 or non-functional AvrRps4KRVY-AAAA effectors were grown for 2 days on solid King's B medium supplemented with appropriate antibiotics. […] Bacteria were pressure infiltrated into mature leaves of three-week-old Arabidopsis plants and cell death or bacterial growth were assessed at indicated times post inoculation (hpi, hours post inoculation; dpi, days post inoculation). […]

For experiment [2], the system named is cell death triggered by in planta expression of the effector, AvrRpt2. The following applies: SA treatment before dexamethasone induction. As for the experimental part:
as §1

The subject of another experiment is ubiquitinated proteins. Briefly: Accumulation of ubiquitinated proteins (α-Ub immunoblot of total protein). Type of experiment: in vivo, Arabidopsis thaliana. The following applies: WT; absent in npr1-2; SA for 6 hr. How it is done:
(§2) Protein analysis and IP. Recombinant protein analysis was performed using transient expression in N. benthamiana, or stable over-expression in transgenic Arabidopsis, or expression in E. coli. Total protein extraction from plants was performed by homogenizing leaf tissue in the plant extraction buffer [50 mM Tris-HCl (pH 7.5), 150 mM NaCl, 5 mM EDTA, 0.2% Triton X-100, 0.2% Nonidet P-40] supplemented with 1 mM PMSF, 100 μM MG132, and EDTA-free protease inhibitor cocktail (Roche). For ubiquitinated protein analysis in plants, 100 μM of DUB (deubiquitinase) inhibitor (LifeSensors) and 10 mM NEM were added. Next, the lysates were cleared by centrifugation at 14,000 rpm for 15 min followed by filtering through a 0.2 μm filter. […] Pull-downs or IP experiments were done on total protein extracts by incubating protein samples in the lysis buffer overnight with indicated affinity tag or antibody conjugated to agarose or magnetic beads: GFP-trap agarose beads (Chromotek) for GFP fusions; RFP-trap agarose beads (Chromotek) for mCherry fusions; anti-HA magnetic beads (ThermoFisher) for HA tag fusions; anti-DYKDDDDK coupled magnetic agarose (ThermoFisher) for FLAG tag fusions; and glutathione magnetic agarose (ThermoFisher) for GST fusions. Unless otherwise indicated, after pull-down/IP, beads were washed 3 times and proteins were eluted by boiling in the 2×SDS sample buffer. […]

The subject of a further experiment is WRKY70-GFP. Briefly: Stability and ubiquitination of WRKY70-GFP. Format: in vivo, Arabidopsis thaliana. How it is done:
(§3) Chemical treatment, pathogen infection and cell death assays. […] At 2 days, the bacterial colonies were scored.
as §2, with “fusions.” for “fusions. Unless otherwise indicated, after pull-down/IP, beads were washed 3 times and proteins were eluted by boiling in the 2×SDS sample buffer.”

The next experiment concerns ETI activated by RPS4. Briefly: Cell death after Pf Pf0-1/AvrRps4 inoculation (conductivity assay). Format: in vivo, Arabidopsis thaliana. The following applies: SA/NPR1-mediated.
Text: as §3

Another experiment concerns EDS1. Kind of experiment: Stability (cycloheximide) and ubiquitination of EDS1. Type of experiment: in vivo, Arabidopsis thaliana. The following applies: WT. How it is done: as §3
as §2, with “fusions.” for “fusions. Unless otherwise indicated, after pull-down/IP, beads were washed 3 times and proteins were eluted by boiling in the 2×SDS sample buffer.”

This is an account of results in patent publication US20230227838A1, “ENHANCED CELL SURVIVAL AGAINST BIOTIC AND ABIOTIC STRESSES THROUGH SALICYLICK ACID-INDUCED NPR1 CONDENSATES” (priority 2020, published 2023).

The structures appear in SMILES notation.

Take `O=C(O)c1ccccc1O` [SA, salicylic acid]: in experiment [1], the “cell death induced by heat shock, oxidative and DNA damage stresses” value is listed as “significantly suppressed cell death”. Besides, in experiment [2], the “cell death triggered by in planta expression of AvrRpt2” value is listed as “protect against cell death”. Moreover, the “accumulation of ubiquitinated proteins” value in the experiment with ubiquitinated proteins is “concentration-dependent accumulation of ubiquitinated proteins”. The “ubiquitination of WRKY70-GFP” value in the experiment with WRKY70-GFP (1 mM SA for 24 h, WT, not npr1-2) was “increased ubiquitination of WRKY70-GFP”. The WRKY70-GFP protein level result in the experiment with WRKY70-GFP (1 mM SA for 24 hr, NPR1- and proteasome-dependent) is reported as “reduced”. For the same compound, the “ETI activated by RPS4 (effector AvrRps4)” value in the experiment with ETI activated by RPS4 is recorded as “inhibition”. Besides, in the experiment with EDS1 (1 mM SA for 6 hr, not in npr1-2 nor eds1-2), the “ubiquitination of EDS1” value was “increased SA-mediated ubiquitination of EDS1”. For the same compound, the “amount of EDS1 in the absence of new protein synthesis” value in the experiment on EDS1 (1 mM SA 4 hr then 100 μM cycloheximide, 16 hours co-incubation, unchanged in npr1-2) was “significantly decreased”.
